From ChEMBL document CHEMBL1127240, “Structure-activity relationships of taxol: synthesis and biological evaluation of C2 taxol analogs” (Bioorg Med Chem Lett, 1994)

Experiments:
HCT-116 = assay: Compound was tested for inhibition of proliferation of human colon cancer cell line (HCT116); assay type: functional, cell-based
[1] = target: Tubulin alpha chain (Sus scrofa) (UniProt P02550); assay: Compound was tested for effective concentration for tubulin polymerization expressed as ratio of compound relative to taxol (EC0.01 at 5 uM); assay type: functional
Chain of Tubulin alpha chain (Sus scrofa) (P02550 whole entry, looked up): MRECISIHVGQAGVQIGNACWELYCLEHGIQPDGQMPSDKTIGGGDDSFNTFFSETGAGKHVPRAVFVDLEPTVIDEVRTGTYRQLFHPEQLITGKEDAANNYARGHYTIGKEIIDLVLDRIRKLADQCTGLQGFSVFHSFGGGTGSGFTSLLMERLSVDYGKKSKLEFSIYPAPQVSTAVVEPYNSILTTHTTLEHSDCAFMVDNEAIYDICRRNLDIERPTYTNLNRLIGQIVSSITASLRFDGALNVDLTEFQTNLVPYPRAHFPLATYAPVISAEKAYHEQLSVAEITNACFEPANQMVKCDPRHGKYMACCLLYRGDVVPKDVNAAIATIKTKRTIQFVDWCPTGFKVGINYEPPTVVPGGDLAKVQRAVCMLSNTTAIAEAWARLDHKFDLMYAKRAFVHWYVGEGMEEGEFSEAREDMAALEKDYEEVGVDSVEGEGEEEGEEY

IC50 (HCT-116) [nM] | Ratio [1] | Compound
2 |  | CC(=O)O[C@H]1C(=O)[C@@]2(C)[C@H]([C@H](OC(=O)c3ccccc3)[C@]3(O)C[C@H](OC(=O)[C@H](O)[C@@H](NC(=O)c4ccccc4)c4ccccc4)C(C)=C1C3(C)C)[C@]1(OC(C)=O)CO[C@@H]1C[C@@H]2O [PACLITAXEL]
> 91 | 130 | CC(=O)O[C@H]1C(=O)[C@@]2(C)C([C@H](OC(=O)C3CCCCC3)[C@]3(O)C[C@H](OC(=O)[C@H](O)[C@@H](NC(=O)c4ccccc4)c4ccccc4)C(C)=C1C3(C)C)[C@]1(OC(C)=O)CO[C@@H]1C[C@@H]2O (some centres not stated)
> 88 | > 250 | COc1ccc(C(=O)O[C@H]2C3[C@](C)(C(=O)[C@H](OC(C)=O)C4=C(C)[C@@H](OC(=O)[C@H](O)[C@@H](NC(=O)c5ccccc5)c5ccccc5)C[C@]2(O)C4(C)C)[C@@H](O)C[C@H]2OC[C@@]32OC(C)=O)cc1 (some centres not stated)

Compound | IC50 (HCT-116) [nM] | Ratio [1]
CC(=O)O[C@H]1C(=O)[C@@]2(C)C([C@H](OC(=O)c3ccc([N+](=O)[O-])cc3)[C@]3(O)C[C@H](OC(=O)[C@H](O)[C@@H](NC(=O)c4ccccc4)c4ccccc4)C(C)=C1C3(C)C)[C@]1(OC(C)=O)CO[C@@H]1C[C@@H]2O (some centres not stated) | > 85 | > 250
